According to ChEMBL document CHEMBL1151757, “Synthesis, radiosynthesis, and biological evaluation of fluorine-18-labeled 2beta-carbo(fluoroalkoxy)-3beta-(3'-((Z)-2-haloethenyl)phenyl)nortropanes: candidate radioligands for in vivo imaging of the serotonin transporter with positron emission tomography” (J Med Chem, 2008):

How the values were obtained:
[1] = Ratio of drug uptake in pons to cerebellum in anesthetized cynomolgus monkey after 95 mins postinjection; format: ADME, organism-based, Macaca fascicularis; details: in vivo
[2] = Ratio of drug uptake in medulla to cerebellum in anesthetized cynomolgus monkey after 0.5 mins postinjection; format: ADME, organism-based, Macaca fascicularis; details: in vivo
[3] = Ratio of drug uptake in medulla to cerebellum in anesthetized cynomolgus monkey after 9.5 mins postinjection; format: ADME, organism-based, Macaca fascicularis; details: in vivo
[4] = Ratio of drug uptake in medulla to cerebellum in anesthetized cynomolgus monkey after 12.5 mins postinjection; format: ADME, organism-based, Macaca fascicularis; details: in vivo
[5] = Ratio of drug uptake in medulla to cerebellum in anesthetized cynomolgus monkey after 95 mins postinjection; format: ADME, organism-based, Macaca fascicularis; details: in vivo
[6] = Ratio of drug uptake in medulla to cerebellum in anesthetized cynomolgus monkey after 135 mins postinjection; format: ADME, organism-based, Macaca fascicularis; details: in vivo, 2.25 h
[7] = Drug uptake in anesthetized cynomolgus monkey brain occipital lobe after 2.5 mins postinjection; format: ADME, organism-based, Macaca fascicularis; details: in vivo
[8] = Drug uptake in anesthetized cynomolgus monkey brain occipital lobe after 18.5 mins postinjection; format: ADME, organism-based, Macaca fascicularis; details: in vivo
[9] = Drug uptake in anesthetized cynomolgus monkey brain occipital lobe after 55 mins postinjection; format: ADME, organism-based, Macaca fascicularis; details: in vivo
[10] = Drug uptake in anesthetized cynomolgus monkey brain occipital lobe after 65 mins postinjection; format: ADME, organism-based, Macaca fascicularis; details: in vivo
[11] = Drug uptake in anesthetized cynomolgus monkey brain occipital lobe after 135 mins postinjection; format: ADME, organism-based, Macaca fascicularis; details: in vivo, 2.25 h
[12] = Drug uptake in anesthetized cynomolgus monkey brain frontal lobe after 9.5 mins postinjection; format: ADME, organism-based, Macaca fascicularis; details: in vivo
[13] = Drug uptake in anesthetized cynomolgus monkey brain frontal lobe after 85 mins postinjection; format: ADME, organism-based, Macaca fascicularis; details: in vivo
[14] = Ratio of drug uptake in midbrain to cerebellum in anesthetized cynomolgus monkey after 215 mins postinjection; format: ADME, organism-based, Macaca fascicularis; details: in vivo
[15] = Ratio of drug uptake in occipital lobe to cerebellum in anesthetized cynomolgus monkey after 95 mins postinjection; format: ADME, organism-based, Macaca fascicularis; details: in vivo
Putamen [16] = assay: Drug uptake in anesthetized cynomolgus monkey brain putamen after 175 mins postinjection; format: ADME, organism-based, Macaca fascicularis; details: in vivo
Putamen [17] = assay: Drug uptake in anesthetized cynomolgus monkey brain putamen after 235 mins postinjection; format: ADME, organism-based, Macaca fascicularis; details: in vivo
[18] = Ratio of drug uptake in frontal lobe to cerebellum in anesthetized cynomolgus monkey after 35 mins postinjection; format: ADME, organism-based, Macaca fascicularis; details: in vivo
[19] = Ratio of drug uptake in frontal lobe to cerebellum in anesthetized cynomolgus monkey after 125 mins postinjection; format: ADME, organism-based, Macaca fascicularis; details: in vivo
Midbrain [20] = assay: Drug uptake in anesthetized cynomolgus monkey brain midbrain after 215 mins postinjection; format: ADME, organism-based, Macaca fascicularis; details: in vivo
Pons [21] = assay: Drug uptake in anesthetized cynomolgus monkey brain pons after 0.5 mins postinjection; format: ADME, organism-based, Macaca fascicularis; details: in vivo
Pons [22] = assay: Drug uptake in anesthetized cynomolgus monkey brain pons after 27.5 mins postinjection; format: ADME, organism-based, Macaca fascicularis; details: in vivo
Pons [23] = assay: Drug uptake in anesthetized cynomolgus monkey brain pons after 35 mins postinjection; format: ADME, organism-based, Macaca fascicularis; details: in vivo
Pons [24] = assay: Drug uptake in anesthetized cynomolgus monkey brain pons after 55 mins postinjection; format: ADME, organism-based, Macaca fascicularis; details: in vivo
Pons [25] = assay: Drug uptake in anesthetized cynomolgus monkey brain pons after 65 mins postinjection; format: ADME, organism-based, Macaca fascicularis; details: in vivo
[26] = Ratio of drug uptake in frontal lobe to cerebellum in anesthetized cynomolgus monkey after 235 mins postinjection; format: ADME, organism-based, Macaca fascicularis; details: in vivo
[27] = Ratio of drug uptake in caudate to cerebellum in anesthetized cynomolgus monkey after 65 mins postinjection; format: ADME, organism-based, Macaca fascicularis; details: in vivo
[28] = Ratio of drug uptake in caudate to cerebellum in anesthetized cynomolgus monkey after 155 mins postinjection; format: ADME, organism-based, Macaca fascicularis; details: in vivo
Pons [29] = assay: Drug uptake in anesthetized cynomolgus monkey brain pons after 125 mins postinjection; format: ADME, organism-based, Macaca fascicularis; details: in vivo
Pons [30] = assay: Drug uptake in anesthetized cynomolgus monkey brain pons after 215 mins postinjection; format: ADME, organism-based, Macaca fascicularis; details: in vivo
Medulla [31] = assay: Drug uptake in anesthetized cynomolgus monkey brain medulla after 45 mins postinjection; format: ADME, organism-based, Macaca fascicularis; details: in vivo, 0.75 h
Medulla [32] = assay: Drug uptake in anesthetized cynomolgus monkey brain medulla after 55 mins postinjection; format: ADME, organism-based, Macaca fascicularis; details: in vivo
[33] = Ratio of drug uptake in putamen to cerebellum in anesthetized cynomolgus monkey after 0.5 mins postinjection; format: ADME, organism-based, Macaca fascicularis; details: in vivo
[34] = Ratio of drug uptake in putamen to cerebellum in anesthetized cynomolgus monkey after 6.5 mins postinjection; format: ADME, organism-based, Macaca fascicularis; details: in vivo
Medulla [35] = assay: Drug uptake in anesthetized cynomolgus monkey brain medulla after 135 mins postinjection; format: ADME, organism-based, Macaca fascicularis; details: in vivo, 2.25 h
Medulla [36] = assay: Drug uptake in anesthetized cynomolgus monkey brain medulla after 215 mins postinjection; format: ADME, organism-based, Macaca fascicularis; details: in vivo
[37] = Drug uptake in anesthetized cynomolgus monkey brain cerebellum after 3.5 mins postinjection; format: ADME, organism-based, Macaca fascicularis; details: in vivo
[38] = Drug uptake in anesthetized cynomolgus monkey brain cerebellum after 135 mins postinjection; format: ADME, organism-based, Macaca fascicularis; details: in vivo, 2.25 h
[39] = Drug uptake in anesthetized cynomolgus monkey brain cerebellum after 215 mins postinjection; format: ADME, organism-based, Macaca fascicularis; details: in vivo
[40] = Ratio of drug uptake in putamen to cerebellum in anesthetized cynomolgus monkey after 65 mins postinjection; format: ADME, organism-based, Macaca fascicularis; details: in vivo
[41] = Ratio of drug uptake in thalamus to cerebellum in anesthetized cynomolgus monkey after 95 mins postinjection; format: ADME, organism-based, Macaca fascicularis; details: in vivo
Caudate [42] = assay: Drug uptake in anesthetized cynomolgus monkey brain caudate after 9.5 mins postinjection; format: ADME, organism-based, Macaca fascicularis, Caudate nucleus; details: in vivo
Caudate [43] = assay: Drug uptake in anesthetized cynomolgus monkey brain caudate after 15.5 mins postinjection; format: ADME, organism-based, Macaca fascicularis, Caudate nucleus; details: in vivo
Caudate [44] = assay: Drug uptake in anesthetized cynomolgus monkey brain caudate after 18.5 mins postinjection; format: ADME, organism-based, Macaca fascicularis, Caudate nucleus; details: in vivo
Caudate [45] = assay: Drug uptake in anesthetized cynomolgus monkey brain caudate after 45 mins postinjection; format: ADME, organism-based, Macaca fascicularis, Caudate nucleus; details: in vivo, 0.75 h
Caudate [46] = assay: Drug uptake in anesthetized cynomolgus monkey brain caudate after 225 mins postinjection; format: ADME, organism-based, Macaca fascicularis, Caudate nucleus; details: in vivo, 3.75 h
Caudate [47] = assay: Drug uptake in anesthetized cynomolgus monkey brain caudate after 235 mins postinjection; format: ADME, organism-based, Macaca fascicularis, Caudate nucleus; details: in vivo
Putamen [48] = assay: Drug uptake in anesthetized cynomolgus monkey brain putamen after 3.5 mins postinjection; format: ADME, organism-based, Macaca fascicularis; details: in vivo
Thalamus [49] = assay: Drug uptake in anesthetized cynomolgus monkey brain thalamus after 3.5 mins postinjection; format: ADME, organism-based, Macaca fascicularis; set-up: unit not given here; details: in vivo
Thalamus [50] = assay: Drug uptake in anesthetized cynomolgus monkey brain thalamus after 27.5 mins postinjection; format: ADME, organism-based, Macaca fascicularis; set-up: unit not given here; details: in vivo
Thalamus [51] = assay: Drug uptake in anesthetized cynomolgus monkey brain thalamus after 35 mins postinjection; format: ADME, organism-based, Macaca fascicularis; set-up: unit not given here; details: in vivo
Thalamus [52] = assay: Drug uptake in anesthetized cynomolgus monkey brain thalamus after 45 mins postinjection; format: ADME, organism-based, Macaca fascicularis; set-up: unit not given here; details: in vivo, 0.75 h
Putamen [53] = assay: Drug uptake in anesthetized cynomolgus monkey brain putamen after 4.5 mins postinjection; format: ADME, organism-based, Macaca fascicularis; set-up: unit not given here; details: in vivo, 0.075 h
Putamen [54] = assay: Drug uptake in anesthetized cynomolgus monkey brain putamen after 9.5 mins postinjection; format: ADME, organism-based, Macaca fascicularis; set-up: unit not given here; details: in vivo
Putamen [55] = assay: Drug uptake in anesthetized cynomolgus monkey brain putamen after 105 mins postinjection; format: ADME, organism-based, Macaca fascicularis; set-up: unit not given here; details: in vivo, 1.75 h
Thalamus [56] = assay: Drug uptake in anesthetized cynomolgus monkey brain thalamus after 235 mins postinjection; format: ADME, organism-based, Macaca fascicularis; set-up: unit not given here; details: in vivo
Midbrain [57] = assay: Drug uptake in anesthetized cynomolgus monkey brain midbrain after 45 mins postinjection; format: ADME, organism-based, Macaca fascicularis; set-up: unit not given here; details: in vivo, 0.75 h
Midbrain [58] = assay: Drug uptake in anesthetized cynomolgus monkey brain midbrain after 75 mins postinjection; format: ADME, organism-based, Macaca fascicularis; set-up: unit not given here; details: in vivo, 1.25 h
Midbrain [59] = assay: Drug uptake in anesthetized cynomolgus monkey brain midbrain after 85 mins postinjection; format: ADME, organism-based, Macaca fascicularis; set-up: unit not given here; details: in vivo
[60] = Ratio of drug uptake in midbrain to cerebellum in anesthetized cynomolgus monkey after 125 mins postinjection; format: ADME, organism-based, Macaca fascicularis; details: in vivo

O=C(OCCC[18F])C1C2CCC(CC1c1cccc(/C=C\Br)c1)N2 (stereo not given)
Ratio [1]: 1.2
Ratio [2]: 2.4
Ratio [3]: 1
Ratio [4]: 1
Ratio [5]: 1.5
Ratio [6]: 1.7
Drug uptake [7]: 1.03
Drug uptake [8]: 4.35
Drug uptake [9]: 4.59
Drug uptake [10]: 4.52
Drug uptake [11]: 3.57
Drug uptake [12]: 3.19
Drug uptake [13]: 3.32
Ratio [14]: 2.2
Ratio [15]: 1.1
Drug uptake (Putamen [16]): 4.1
Drug uptake (Putamen [17]): 3.27
Ratio [18]: 0.7
Ratio [19]: 0.9
Drug uptake (Midbrain [20]): 4.58
Drug uptake (Pons [21]): 0.01
Drug uptake (Pons [22]): 5.03
Drug uptake (Pons [23]): 5.08
Drug uptake (Pons [24]): 4.72
Drug uptake (Pons [25]): 4.93
Ratio [26]: 1.1
Ratio [27]: 1.2
Ratio [28]: 1.6
Drug uptake (Pons [29]): 4.3
Drug uptake (Pons [30]): 3.17
Drug uptake (Medulla [31]): 5.8
Drug uptake (Medulla [32]): 5.66
Ratio [33]: 0.8
Ratio [34]: 0.9
Drug uptake (Medulla [35]): 4.99
Drug uptake (Medulla [36]): 3.67
Drug uptake [37]: 2.81
Drug uptake [38]: 2.89
Drug uptake [39]: 2.1
Ratio [40]: 1.3
Ratio [41]: 1.4
Drug uptake (Caudate [42]): 3.93
Drug uptake (Caudate [43]): 4.3
Drug uptake (Caudate [44]): 4.53
Drug uptake (Caudate [45]): 5.32
Drug uptake (Caudate [46]): 3.46
Drug uptake (Caudate [47]): 3.28
Drug uptake (Putamen [48]): 2.28
Drug uptake (Thalamus [49]): 1.89
Drug uptake (Thalamus [50]): 5.08
Drug uptake (Thalamus [51]): 5.26
Drug uptake (Thalamus [52]): 5.49
Drug uptake (Putamen [53]): 3.11
Drug uptake (Putamen [54]): 5.12
Drug uptake (Putamen [55]): 5.21
Drug uptake (Thalamus [56]): 3.48
Drug uptake (Midbrain [57]): 6.06
Drug uptake (Midbrain [58]): 6.07
Drug uptake (Midbrain [59]): 5.86
Ratio [60]: 1.8
